From ChEMBL document CHEMBL5506035, “Discovery of Glutamate Carboxypeptidase III Ligands to Compete the Uptake of [177Lu]Lu-PSMA-617 in Healthy Organs” (J Med Chem, 2024)
pKd: −log10 of the molar value. The source made the active and inactive calls. The calls are words filed in the database; no cut-off is given here.

Experiments:
[1] = target: T1, Glutamate carboxypeptidase 2 (Homo sapiens, UniProt Q04609); experiment: Binding affinity to human recombinant PSMA assessed as dissociation constant by fluorescence polarization assay
Target sequence in this assay (Q04609 whole entry): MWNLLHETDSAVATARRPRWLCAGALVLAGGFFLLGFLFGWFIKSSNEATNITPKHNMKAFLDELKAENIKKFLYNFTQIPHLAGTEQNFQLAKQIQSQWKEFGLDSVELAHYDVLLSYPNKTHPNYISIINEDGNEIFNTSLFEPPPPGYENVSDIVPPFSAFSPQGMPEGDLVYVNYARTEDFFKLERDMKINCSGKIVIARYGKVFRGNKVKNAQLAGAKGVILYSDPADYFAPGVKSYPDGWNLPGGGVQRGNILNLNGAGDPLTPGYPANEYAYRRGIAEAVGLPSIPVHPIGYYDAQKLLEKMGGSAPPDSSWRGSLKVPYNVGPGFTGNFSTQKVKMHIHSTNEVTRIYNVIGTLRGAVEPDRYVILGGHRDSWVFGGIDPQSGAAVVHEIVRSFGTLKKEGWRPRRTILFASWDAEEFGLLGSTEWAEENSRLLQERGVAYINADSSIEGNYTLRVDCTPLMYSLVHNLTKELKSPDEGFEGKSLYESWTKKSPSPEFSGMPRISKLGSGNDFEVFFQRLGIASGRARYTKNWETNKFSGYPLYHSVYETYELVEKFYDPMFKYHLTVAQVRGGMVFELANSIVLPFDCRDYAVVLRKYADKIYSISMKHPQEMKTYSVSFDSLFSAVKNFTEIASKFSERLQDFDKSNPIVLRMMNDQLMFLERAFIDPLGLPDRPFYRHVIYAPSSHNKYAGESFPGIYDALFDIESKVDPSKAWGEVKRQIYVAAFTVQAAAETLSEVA

[2] = target: T1, Glutamate carboxypeptidase 2; experiment: Displacement of [177Lu]LU-PSMA-617 from PSMA in human salivary gland assessed as residual activity at 10 uM incubated for 1 hr by autoradiography analysis relative to control; format: tissue-based
Target sequence in this assay (Q04609 whole entry, looked up): as the sequence (Q04609 whole entry) above

[3] = target: T2, N-acetylated-alpha-linked acidic dipeptidase 2 (Homo sapiens, UniProt Q9Y3Q0); experiment: Binding affinity to human recombinant GCPIII assessed as dissociation constant by fluorescence polarization assay
Target sequence in this assay (Q9Y3Q0 whole entry): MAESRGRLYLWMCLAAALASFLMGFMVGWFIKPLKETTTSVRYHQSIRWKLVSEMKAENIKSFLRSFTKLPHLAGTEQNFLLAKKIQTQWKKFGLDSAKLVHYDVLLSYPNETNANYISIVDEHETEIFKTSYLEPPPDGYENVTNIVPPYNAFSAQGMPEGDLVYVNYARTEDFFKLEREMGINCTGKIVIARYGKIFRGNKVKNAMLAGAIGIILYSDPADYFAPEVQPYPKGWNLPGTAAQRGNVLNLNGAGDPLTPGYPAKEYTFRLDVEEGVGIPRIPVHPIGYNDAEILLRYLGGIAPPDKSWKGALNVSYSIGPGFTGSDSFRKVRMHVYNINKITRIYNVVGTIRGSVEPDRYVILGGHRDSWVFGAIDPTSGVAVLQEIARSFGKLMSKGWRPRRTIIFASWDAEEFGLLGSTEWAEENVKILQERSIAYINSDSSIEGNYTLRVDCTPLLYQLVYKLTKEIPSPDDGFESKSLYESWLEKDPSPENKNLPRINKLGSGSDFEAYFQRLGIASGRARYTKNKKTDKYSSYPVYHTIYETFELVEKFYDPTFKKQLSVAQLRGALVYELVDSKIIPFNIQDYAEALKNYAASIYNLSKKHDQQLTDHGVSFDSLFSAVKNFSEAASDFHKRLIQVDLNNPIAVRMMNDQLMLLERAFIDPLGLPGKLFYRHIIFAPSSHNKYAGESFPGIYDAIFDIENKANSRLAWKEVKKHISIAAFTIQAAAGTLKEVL

Homo sapiens = species on record: Homo sapiens; experiment: Ratio of Kd for binding affinity to human recombinant GCPIII assessed as dissociation constant by fluorescence polarization assay to Kd for binding affinity to human recombinant PSMA assessed as dissociation constant by fluorescence polarization assay
[4] = target: T1, Glutamate carboxypeptidase 2; experiment: Displacement of [177Lu]LU-PSMA-617 from human PSMA at 10 to 100 uM incubated for 15 mins by manual size-exclusion chromatography analysis; settings: dose 10-100 µM
Target sequence in this assay (Q04609 whole entry, looked up): as the sequence (Q04609 whole entry) above

Prolyl endopeptidase FAP [5] = target: T3, Prolyl endopeptidase FAP (Homo sapiens, UniProt Q12884); experiment: Binding affinity to human FAP assessed as dissociation constant by fluorescence polarization assay
T3 sequence (Q12884 whole entry): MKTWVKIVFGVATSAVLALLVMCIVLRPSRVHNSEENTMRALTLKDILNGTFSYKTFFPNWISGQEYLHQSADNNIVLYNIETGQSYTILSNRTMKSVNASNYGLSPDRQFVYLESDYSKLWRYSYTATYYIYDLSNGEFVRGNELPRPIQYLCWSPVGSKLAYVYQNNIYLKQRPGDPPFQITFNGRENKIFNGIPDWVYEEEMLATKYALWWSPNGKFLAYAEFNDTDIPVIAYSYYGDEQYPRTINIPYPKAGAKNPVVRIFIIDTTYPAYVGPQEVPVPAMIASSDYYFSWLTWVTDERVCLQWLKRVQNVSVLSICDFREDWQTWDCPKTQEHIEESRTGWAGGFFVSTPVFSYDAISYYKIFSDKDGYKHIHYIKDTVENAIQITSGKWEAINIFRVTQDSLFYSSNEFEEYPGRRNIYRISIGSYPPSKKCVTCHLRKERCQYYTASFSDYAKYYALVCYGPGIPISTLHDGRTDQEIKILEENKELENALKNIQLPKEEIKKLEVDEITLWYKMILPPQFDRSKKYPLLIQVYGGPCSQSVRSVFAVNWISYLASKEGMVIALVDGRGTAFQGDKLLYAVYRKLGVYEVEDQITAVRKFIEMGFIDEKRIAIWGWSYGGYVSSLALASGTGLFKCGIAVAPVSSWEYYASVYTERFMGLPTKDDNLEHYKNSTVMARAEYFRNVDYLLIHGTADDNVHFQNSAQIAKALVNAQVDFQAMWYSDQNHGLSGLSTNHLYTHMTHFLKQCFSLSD

Albumin [6] = target: Albumin (Rattus norvegicus, UniProt P02770); experiment: Binding affinity to rat serum albumin by fluorescence polarization assay
Prolyl endopeptidase FAP [7] = target: T4, Prolyl endopeptidase FAP (Mus musculus, UniProt P97321); experiment: Binding affinity to mouse FAP assessed as dissociation constant by fluorescence polarization assay
T4 sequence (P97321 whole entry): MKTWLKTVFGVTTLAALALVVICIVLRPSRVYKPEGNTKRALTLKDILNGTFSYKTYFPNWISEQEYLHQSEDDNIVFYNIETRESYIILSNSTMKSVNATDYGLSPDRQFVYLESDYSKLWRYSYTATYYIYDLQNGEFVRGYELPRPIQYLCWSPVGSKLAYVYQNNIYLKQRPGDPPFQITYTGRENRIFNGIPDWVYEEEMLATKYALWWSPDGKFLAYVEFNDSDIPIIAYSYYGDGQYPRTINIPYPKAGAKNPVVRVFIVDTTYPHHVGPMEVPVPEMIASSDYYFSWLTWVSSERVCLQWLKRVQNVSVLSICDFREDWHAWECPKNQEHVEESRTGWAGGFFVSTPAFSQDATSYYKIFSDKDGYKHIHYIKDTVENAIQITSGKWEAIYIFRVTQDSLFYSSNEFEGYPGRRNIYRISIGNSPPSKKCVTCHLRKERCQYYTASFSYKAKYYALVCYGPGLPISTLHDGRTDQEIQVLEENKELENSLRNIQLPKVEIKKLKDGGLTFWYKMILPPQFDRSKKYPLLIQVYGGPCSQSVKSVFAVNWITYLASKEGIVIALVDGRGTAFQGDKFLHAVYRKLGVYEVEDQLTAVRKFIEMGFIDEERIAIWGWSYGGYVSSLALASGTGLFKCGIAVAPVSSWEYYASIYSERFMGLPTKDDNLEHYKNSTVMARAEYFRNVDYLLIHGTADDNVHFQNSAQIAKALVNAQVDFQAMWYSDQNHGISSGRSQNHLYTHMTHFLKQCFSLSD

Albumin [8] = target: Albumin (Oryctolagus cuniculus, UniProt P49065); experiment: Binding affinity to rabbit serum albumin by fluorescence polarization assay
[9] = target: Carbonic anhydrase 2 (Homo sapiens) (UniProt P00918); experiment: Binding affinity to Carbonic anhydrase II (unknown origin) by fluorescence polarization assay
Albumin [10] = target: Albumin (Homo sapiens, UniProt P02768); experiment: Binding affinity to human serum albumin by fluorescence polarization assay
[11] = target: Natural cytotoxicity triggering receptor 1 (Homo sapiens, UniProt O76036); experiment: Binding affinity to NKp46 (unknown origin) assessed as dissociation constant by fluorescence polarization assay
Albumin [12] = target: Albumin (Bos taurus, UniProt P02769); experiment: Binding affinity to bovine serum albumin by fluorescence polarization assay
[13] = target: Stromelysin-1 (Homo sapiens) (UniProt P08254); experiment: Binding affinity to MMP3 (unknown origin) by fluorescence polarization assay
Albumin [14] = target: Albumin (Macaca fascicularis, UniProt A2V9Z4); experiment: Binding affinity to cynomolgus serum albumin by fluorescence polarization assay; settings: cynomolgus monkey
[15] = Binding affinity to IL-9 receptor (unknown origin) assessed as dissociation constant by fluorescence polarization assay; set-up: species or system Homo sapiens
Interleukin-15 = Interleukin-15 (Homo sapiens, UniProt P40933); experiment: Binding affinity to IL-15 (unknown origin) assessed as dissociation constant by fluorescence polarization assay
[16] = target: Urokinase-type plasminogen activator (Homo sapiens, UniProt P00749); experiment: Binding affinity to Urokinase (unknown origin) assessed as dissociation constant by fluorescence polarization assay
[17] = target: Immunoglobulin heavy constant gamma 4 (Homo sapiens) (UniProt P01861); experiment: Binding affinity to IgG4 (unknown origin) by fluorescence polarization assay
[18] = target: T2, N-acetylated-alpha-linked acidic dipeptidase 2; experiment: Displacement of [177Lu]LU-PSMA-617 from human […] at 10 to 100 uM incubated for 15 mins by manual size-exclusion chromatography analysis; settings: dose 10-100 µM
Target sequence in this assay (Q9Y3Q0 whole entry, looked up): as the sequence (Q9Y3Q0 whole entry) above

[19] = target: T1, Glutamate carboxypeptidase 2; experiment: Displacement of [177Lu]LU-PSMA-617 from PSMA in human HT-1080 cells by autoradiography analysis; format: cell-based; settings: dose 0.6-50 µM
Target sequence in this assay (Q04609 whole entry, looked up): as the sequence (Q04609 whole entry) above

Albumin (Bos taurus, UniProt P02769), sequence (P02769 whole entry): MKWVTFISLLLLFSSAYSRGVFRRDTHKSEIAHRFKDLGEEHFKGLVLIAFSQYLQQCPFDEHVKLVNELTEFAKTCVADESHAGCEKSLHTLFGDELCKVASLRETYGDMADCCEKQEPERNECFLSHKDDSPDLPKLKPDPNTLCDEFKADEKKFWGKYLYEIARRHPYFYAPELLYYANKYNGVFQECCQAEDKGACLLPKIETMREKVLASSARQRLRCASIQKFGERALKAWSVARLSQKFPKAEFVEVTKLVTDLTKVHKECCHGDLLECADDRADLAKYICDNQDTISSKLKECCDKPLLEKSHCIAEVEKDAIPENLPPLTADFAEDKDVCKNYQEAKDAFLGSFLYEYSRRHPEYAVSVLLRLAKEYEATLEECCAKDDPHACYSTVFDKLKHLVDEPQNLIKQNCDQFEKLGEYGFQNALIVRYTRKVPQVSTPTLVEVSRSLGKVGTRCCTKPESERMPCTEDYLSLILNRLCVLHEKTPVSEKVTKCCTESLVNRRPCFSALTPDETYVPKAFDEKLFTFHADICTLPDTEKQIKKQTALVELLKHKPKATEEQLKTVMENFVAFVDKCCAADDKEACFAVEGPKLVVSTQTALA
Albumin (Oryctolagus cuniculus, UniProt P49065), sequence (P49065 whole entry): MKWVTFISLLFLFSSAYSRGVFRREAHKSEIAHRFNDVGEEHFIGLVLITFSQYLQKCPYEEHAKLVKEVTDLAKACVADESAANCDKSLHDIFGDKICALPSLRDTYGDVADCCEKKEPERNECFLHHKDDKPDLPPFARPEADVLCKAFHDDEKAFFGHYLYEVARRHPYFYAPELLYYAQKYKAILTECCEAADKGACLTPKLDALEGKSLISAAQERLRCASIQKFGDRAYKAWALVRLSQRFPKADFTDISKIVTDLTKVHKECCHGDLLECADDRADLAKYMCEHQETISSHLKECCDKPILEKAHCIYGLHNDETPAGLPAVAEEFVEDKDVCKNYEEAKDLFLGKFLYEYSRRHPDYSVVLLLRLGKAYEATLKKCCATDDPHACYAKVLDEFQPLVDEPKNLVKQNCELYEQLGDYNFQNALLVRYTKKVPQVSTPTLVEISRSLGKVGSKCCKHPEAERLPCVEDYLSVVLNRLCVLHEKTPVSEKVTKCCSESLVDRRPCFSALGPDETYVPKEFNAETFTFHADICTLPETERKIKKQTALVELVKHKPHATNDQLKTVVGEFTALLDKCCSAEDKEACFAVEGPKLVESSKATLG
Albumin (Rattus norvegicus, UniProt P02770), sequence (P02770 whole entry): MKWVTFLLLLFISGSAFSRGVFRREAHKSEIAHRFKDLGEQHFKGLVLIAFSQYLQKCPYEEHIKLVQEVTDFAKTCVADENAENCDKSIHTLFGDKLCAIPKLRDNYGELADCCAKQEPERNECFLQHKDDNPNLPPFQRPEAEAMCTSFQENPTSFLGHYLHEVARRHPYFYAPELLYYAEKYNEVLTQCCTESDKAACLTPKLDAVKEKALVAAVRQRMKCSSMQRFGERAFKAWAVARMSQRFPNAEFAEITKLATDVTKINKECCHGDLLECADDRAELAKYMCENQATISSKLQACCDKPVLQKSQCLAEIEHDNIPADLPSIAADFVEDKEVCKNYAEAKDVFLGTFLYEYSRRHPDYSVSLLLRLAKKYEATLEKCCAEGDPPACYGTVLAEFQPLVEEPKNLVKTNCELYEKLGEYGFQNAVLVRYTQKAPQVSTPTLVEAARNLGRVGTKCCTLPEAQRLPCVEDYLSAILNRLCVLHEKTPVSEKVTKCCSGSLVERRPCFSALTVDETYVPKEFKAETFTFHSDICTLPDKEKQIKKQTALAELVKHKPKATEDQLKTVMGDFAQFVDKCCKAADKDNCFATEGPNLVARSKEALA
Albumin (Macaca fascicularis, UniProt A2V9Z4), sequence (A2V9Z4 whole entry): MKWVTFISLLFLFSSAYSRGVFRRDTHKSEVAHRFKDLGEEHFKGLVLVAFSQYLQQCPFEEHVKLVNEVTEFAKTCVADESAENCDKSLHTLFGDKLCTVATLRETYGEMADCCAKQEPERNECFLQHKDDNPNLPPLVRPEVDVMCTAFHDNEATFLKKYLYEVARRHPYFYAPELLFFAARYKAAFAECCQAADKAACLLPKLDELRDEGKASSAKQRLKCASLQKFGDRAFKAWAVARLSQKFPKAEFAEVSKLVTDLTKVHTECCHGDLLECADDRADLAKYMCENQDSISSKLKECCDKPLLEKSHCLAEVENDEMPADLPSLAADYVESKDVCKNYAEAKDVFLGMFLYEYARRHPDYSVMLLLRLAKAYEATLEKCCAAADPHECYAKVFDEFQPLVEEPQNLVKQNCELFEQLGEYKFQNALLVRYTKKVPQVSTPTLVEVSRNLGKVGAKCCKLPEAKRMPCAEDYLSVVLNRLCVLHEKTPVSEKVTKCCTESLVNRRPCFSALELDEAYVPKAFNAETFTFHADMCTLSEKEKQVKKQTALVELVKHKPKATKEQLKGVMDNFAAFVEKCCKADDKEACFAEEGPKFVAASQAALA
Albumin (Homo sapiens, UniProt P02768), sequence (P02768 whole entry): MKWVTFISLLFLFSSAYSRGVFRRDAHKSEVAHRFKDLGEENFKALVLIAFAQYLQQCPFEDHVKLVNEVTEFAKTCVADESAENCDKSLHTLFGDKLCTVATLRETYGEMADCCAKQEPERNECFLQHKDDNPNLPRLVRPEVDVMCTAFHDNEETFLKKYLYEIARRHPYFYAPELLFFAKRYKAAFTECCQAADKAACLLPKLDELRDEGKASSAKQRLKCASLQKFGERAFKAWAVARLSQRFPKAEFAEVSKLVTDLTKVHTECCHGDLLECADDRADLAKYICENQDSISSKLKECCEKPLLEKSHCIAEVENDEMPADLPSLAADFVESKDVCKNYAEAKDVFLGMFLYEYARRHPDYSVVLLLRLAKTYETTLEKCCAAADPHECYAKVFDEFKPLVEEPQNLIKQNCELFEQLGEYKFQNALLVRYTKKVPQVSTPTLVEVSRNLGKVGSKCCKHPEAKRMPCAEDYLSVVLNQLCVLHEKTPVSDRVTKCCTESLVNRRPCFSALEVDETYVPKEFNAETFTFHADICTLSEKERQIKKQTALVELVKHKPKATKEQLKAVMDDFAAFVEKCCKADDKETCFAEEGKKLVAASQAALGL
Interleukin-15, sequence (P40933 whole entry): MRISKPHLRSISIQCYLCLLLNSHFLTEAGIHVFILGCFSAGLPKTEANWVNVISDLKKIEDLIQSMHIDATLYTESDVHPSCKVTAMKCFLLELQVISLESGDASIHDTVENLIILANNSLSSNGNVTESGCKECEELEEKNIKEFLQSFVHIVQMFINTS

O=C(N[C@@H]1C[C@@H](C(=O)N[C@@H](CNC(=S)Nc2ccc3c(c2)C(=O)OC32c3ccc(O)cc3Oc3cc(O)ccc32)C(=O)O)N(C(=O)c2cnoc2C2CC2)C1)c1c[nH]nn1
pKd [1]: < 6.00
Activity [2]: 44%
pKd [3]: 8.20

O=C(N[C@@H](CCCCNC(=S)Nc1ccc2c(c1)C(=O)OC21c2ccc(O)cc2Oc2cc(O)ccc21)C(=O)O)c1c[nH]nn1
Ratio (Homo sapiens): 20
pKd [3]: 7.06

O=C(O)CC[C@H](NC(=O)N[C@@H](CCCCNC(=O)[C@H](Cc1ccc2ccccc2c1)NC(=O)[C@H]1CC[C@H](CNC(=O)CN2CCN(CC(=O)O)CCN(CC(=O)O)CCN(CC(=O)O)CC2)CC1)C(=O)O)C(=O)O
Activity [4]: inactive

O=C(N[C@@H]1C[C@@H](C(=O)N[C@@H](CCCCNC(=S)Nc2ccc3c(c2)C(=O)OC32c3ccc(O)cc3Oc3cc(O)ccc32)C(=O)O)N(C(=O)c2cnoc2C2CC2)C1)c1c[nH]nn1
pKd (Prolyl endopeptidase FAP [5]): < 5.82
pKd [1]: < 8.70
Activity (Albumin [6]): Not Active
pKd (Prolyl endopeptidase FAP [7]): < 6.15
Activity (Albumin [8]): Not Active
Ratio (Homo sapiens): 100
Activity [9]: inactive
Activity [2]: 39%
Activity (Albumin [10]): Not Active
pKd [11]: < 5.48
pKd [3]: 7.85
pKd (Albumin [12]): 5.35
Activity [13]: inactive
Activity (Albumin [14]): Not Active
pKd [15]: < 5.12
pKd (Interleukin-15): < 5.30
pKd [16]: < 5.02
Activity [17]: inactive

O=C(N[C@@H]1C[C@@H](C(=O)N[C@@H](CNC(=S)Nc2ccc3c(c2)C(=O)OC32c3ccc(O)cc3Oc3cc(O)ccc32)C(=O)O)N(C(=O)c2c[nH]nn2)C1)c1c[nH]nn1
pKd [1]: < 6.00
Activity [18]: Active
Activity [19]: Dose-Dependent Effect
Activity [2]: 14%
pKd [3]: 8.77

CCCCCCNC(=S)Nc1ccc2c(c1)C(=O)OC21c2ccc(O)cc2Oc2cc(O)ccc21
Activity [2]: 92%

O=C(N[C@@H]1C[C@@H](C(=O)NCCOCCOCCNC(=S)Nc2ccc3c(c2)C(=O)OC32c3ccc(O)cc3Oc3cc(O)ccc32)N(C(=O)c2cnoc2C2CC2)C1)c1c[nH]nn1
pKd [1]: 6.51
pKd [3]: 7.62
